Experimental data taken from DBAASP.
≈ marks a conversion by molar mass, not a printed value. Where “and” joins values, the source holds several entries; their conditions need not be identical. Equal values may be shown once. Each block holds one compound with its values, some of them ahead of it.

Key:
Assay in all cases: ≥ marks a high value that may be exact or a test limit, other limits are often not marked, values filed in µg/mL are converted to µM
[1] = test system: Achromobacter xylosoxidans
Candida albicans = test system: Candida albicans
Escherichia coli UB1005 = test system: Escherichia coli UB1005
[2] = test system: Pseudomonas aeruginosa ATCC 9027
[3] = test system: Pseudomonas aeruginosa M1251
[4] = test system: Pseudomonas aeruginosa M1426
[5] = test system: Pseudomonas aeruginosa M76
[6] = test system: Pseudomonas aeruginosa M917
[7] = test system: Pseudomonas aeruginosa R70
Pseudomonas aeruginosa = test system: Pseudomonas aeruginosa
Pseudomonas fluorescens = test system: Pseudomonas fluorescens
[8] = test system: Salmonella enterica serovar Typhimurium
[9] = test system: Staphylococcus aureus ATCC 6538
Staphylococcus aureus = test system: Staphylococcus aureus
[10] = test system: Stenotrophomonas maltophilia
[11] = test system: Candida albicans ATCC 200955
[12] = test system: Candida albicans ATCC 36232
Candida glabrata = test system: Candida glabrata
[13] = test system: Candida krusei ATCC 200917
[14] = test system: Candida krusei ATCC 90878
Candida tropicalis = test system: Candida tropicalis
Cryptococcus neoformans = test system: Cryptococcus neoformans
[15] = test system: Escherichia coli ATCC 2592
[16] = test system: Micrococcus luteus ATCC 9341
Aeromonas hydrophila = test system: Aeromonas hydrophila
Escherichia coli MG1655 = test system: Escherichia coli MG1655
Vibrio harveyi = test system: Vibrio harveyi
Bacillus subtilis C971 = test system: Bacillus subtilis C971
[17] = test system: Corynebacterium xerosis C875
[18] = test system: Enterococcus faecalis C625
[19] = test system: Escherichia coli ATCC 25922
Escherichia coli DC2 = test system: Escherichia coli DC2
[20] = test system: Klebsiella pneumoniae ATCC 700603
[21] = test system: Pseudomonas aeruginosa ATCC 27853
[22] = test system: Pseudomonas aeruginosa H187
[23] = test system: Pseudomonas aeruginosa H188
[24] = test system: Salmonella typhimurium C587
[25] = test system: Salmonella typhimurium C610
[26] = test system: Staphylococcus aureus ATCC 25923
[27] = test system: Staphylococcus aureus SAP 0017
[28] = test system: Staphylococcus epidermidis ATCC 12228
[29] = test system: Staphylococcus epidermidis C621
[30] = test system: Streptococcus pneumoniae ATCC 49619
[31] = test system: Acinetobacter baumannii ATCC 19606
[32] = test system: Escherichia coli BW25113 ΔsbmA
Escherichia coli BW25113 = test system: Escherichia coli BW25113
[33] = test system: Acinetobacter baumannii ATCC 7978
[34] = test system: Enterococcus faecium E007
[35] = test system: Staphylococcus aureus ATCC 29231
[36] = test system: Staphylococcus aureus MW2

SMILES: CC(C)C[C@H](NC(=O)[C@H](CC(C)C)NC(=O)[C@H](CCCCN)NC(=O)[C@H](CCCCN)NC(=O)[C@H](C)NC(=O)[C@H](CC(C)C)NC(=O)[C@H](CCCCN)NC(=O)[C@H](C)NC(=O)[C@H](CC(C)C)NC(=O)[C@H](CC(C)C)NC(=O)[C@H](CCCCN)NC(=O)[C@H](C)NC(=O)[C@@H](N)Cc1ccccc1)C(N)=O [FAKLLAKLAKKLL]
MIC [1]: ≥ 43.9 µM
MIC (Candida albicans): 5.49 µM (≈ 7.99 µg/mL)
MIC (Escherichia coli UB1005): 2.75 µM (≈ 4 µg/mL)
MIC [2]: 68.6 µM (≈ 99.9 µg/mL)
MIC [3]: 2.75 µM (≈ 4 µg/mL)
MIC [4]: 5.49 µM (≈ 7.99 µg/mL)
MIC [5]: 2.75 µM (≈ 4 µg/mL)
MIC [6]: 11 µM (≈ 16 µg/mL)
MIC [7]: 2.75 µM (≈ 4 µg/mL)
MIC (Pseudomonas aeruginosa): 5.49 µM (≈ 7.99 µg/mL)
MIC (Pseudomonas fluorescens): 5.49 µM (≈ 7.99 µg/mL)
MIC [8]: 2.75 µM (≈ 4 µg/mL)
MIC [9]: 3.43 µM (≈ 5 µg/mL)
MIC (Staphylococcus aureus): 2.75 µM (≈ 4 µg/mL)
MIC [10]: 1.37 µM (≈ 2 µg/mL)

SMILES: CC(C)[C@H](NC(=O)[C@H](CCCCN)NC(=O)[C@H](Cc1ccccc1)NC(=O)[C@@H](NC(=O)[C@@H](NC(=O)[C@H](CCCCN)NC(=O)[C@@H](N)CCCCN)C(C)C)C(C)C)C(=O)N[C@@H](CCCCN)C(=O)N[C@@H](Cc1ccccc1)C(=O)N[C@@H](CCCCN)C(=O)N[C@@H](CCCCN)C(N)=O [KKVVFKVKFKK]
MIC [11]: 3.2 µM (≈ 4.41 µg/mL)
MIC [12]: 2.27 µM and 3.21 µM and 4.53 µM
MIC (Candida albicans): 5.8 µM (≈ 7.99 µg/mL)
MIC (Candida glabrata): 23.2 µM (≈ 32 µg/mL)
MIC [13]: 1.6 µM (≈ 2.2 µg/mL)
MIC [14]: 1.6 µM (≈ 2.2 µg/mL)
MIC (Candida tropicalis): 2.9 µM (≈ 4 µg/mL)
MIC (Cryptococcus neoformans): 2.9 µM (≈ 4 µg/mL)
MIC [15]: 7.98 µM (≈ 11 µg/mL)
MIC [16]: 2.27 µM (≈ 3.13 µg/mL)
MIC [2]: 4.35 µM (≈ 6 µg/mL)
MIC [9]: 2.27 µM (≈ 3.13 µg/mL)

SMILES: CC[C@H](C)[C@H](NC(=O)[C@H](C)NC(=O)[C@H](CCCN=C(N)N)NC(=O)[C@H](Cc1cnc[nH]1)NC(=O)[C@@H](NC(=O)[C@H](C)NC(=O)[C@H](CCCN=C(N)N)NC(=O)[C@@H](NC(=O)CNC(=O)[C@H](Cc1cnc[nH]1)NC(=O)[C@H](CO)NC(=O)[C@@H](NC(=O)[C@H](Cc1c[nH]c2ccccc12)NC(=O)CNC(=O)[C@@H](NC(=O)[C@@H](NC(=O)[C@H](Cc1cnc[nH]1)NC(=O)[C@H](C)NC(=O)[C@@H](NC(=O)[C@@H](N)Cc1ccccc1)[C@@H](C)CC)[C@@H](C)CC)[C@@H](C)CC)[C@@H](C)CC)C(C)C)[C@@H](C)CC)C(=O)N[C@@H](Cc1cnc[nH]1)C(N)=O [FIAHIIGWISHGVRAIHRAIH]
MIC (Aeromonas hydrophila): ≥ 128 µM
MIC (Escherichia coli MG1655): 16 µM and ≥ 32 µM
MIC (Vibrio harveyi): ≥ 32 µM

SMILES: CC[C@H](C)[C@H](NC(=O)[C@H](CCCCN)NC(=O)[C@H](CCCCN)NC(=O)[C@@H](N)CC(C)C)C(=O)NCC(=O)N[C@@H](CCCCN)C(=O)N[C@@H](CCCCN)C(=O)N[C@H](C(=O)N[C@@H](Cc1c[nH]c2ccccc12)C(=O)N[C@@H](CCCN=C(N)N)C(=O)N[C@H](C(=O)NCC(=O)N[C@@H](Cc1c[nH]c2ccccc12)C(=O)N[C@@H](CC(N)=O)C(=O)N[C@H](C(=O)N[C@@H](CCCN=C(N)N)C(=O)O)[C@@H](C)O)C(C)C)[C@@H](C)CC [LKKIGKKIWRVGWNTR]
MIC [33]: ≥ 64.5 µM
MIC [34]: ≥ 64.5 µM
MIC [35]: ≥ 64.5 µM
MIC [36]: ≥ 64.5 µM

Further lines, results first:

MIC (Bacillus subtilis C971): 0.692 µM (≈ 2.03 µg/mL)
MIC [17]: 0.692 µM (≈ 2.03 µg/mL)
MIC [18]: 5.53 µM (≈ 16.2 µg/mL)
MIC [19]: 2.83 µM (≈ 8.3 µg/mL)
MIC (Escherichia coli DC2): 0.864 µM (≈ 2.54 µg/mL)
MIC (Escherichia coli UB1005): 0.864 µM (≈ 2.54 µg/mL)
MIC [20]: 4 µM (≈ 11.7 µg/mL)
MIC [21]: 8 µM (≈ 23.5 µg/mL)
MIC [22]: 1.73 µM (≈ 5.07 µg/mL)
MIC [23]: 2.21 µM (≈ 6.49 µg/mL)
MIC [24]: 2.21 µM (≈ 6.49 µg/mL)
MIC [25]: 0.864 µM (≈ 2.54 µg/mL)
MIC [26]: 2.77 µM and 5.66 µM
MIC [27]: 1.73 µM (≈ 5.07 µg/mL)
MIC [28]: 2.83 µM (≈ 8.3 µg/mL)
MIC [29]: 1.11 µM (≈ 3.25 µg/mL)
MIC [30]: 2 µM (≈ 5.87 µg/mL)
SMILES: CC[C@H](C)[C@H](NC(=O)[C@H](C)NC(=O)[C@H](CCCCN)NC(=O)[C@H](CC(C)C)NC(=O)[C@H](C)NC(=O)[C@@H](NC(=O)[C@H](Cc1cnc[nH]1)NC(=O)[C@H](CC(C)C)NC(=O)[C@@H](NC(=O)[C@@H](NC(=O)[C@H](CCCCN)NC(=O)[C@H](C)NC(=O)[C@H](C)NC(=O)[C@H](CO)NC(=O)[C@H](CCCCN)NC(=O)[C@H](Cc1ccccc1)NC(=O)[C@@H](NC(=O)[C@H](CCCCN)NC(=O)[C@H](CC(C)C)NC(=O)[C@H](Cc1ccccc1)NC(=O)[C@H](CO)NC(=O)[C@H](CCCCN)NC(=O)[C@H](Cc1c[nH]c2ccccc12)NC(=O)[C@H](CCCCN)NC(C)=O)[C@@H](C)O)[C@@H](C)O)C(C)C)[C@@H](C)O)C(=O)N[C@@H](CO)C(=O)N[C@@H](CO)C(N)=O [KWKSFLKTFKSAAKTVLHTALKAISS]

MIC [31]: 32 µM (≈ 72.2 µg/mL)
MIC [32]: 3 µM (≈ 6.76 µg/mL)
MIC (Escherichia coli BW25113): 2 µM (≈ 4.51 µg/mL)
MIC [20]: 4 µM (≈ 9.02 µg/mL)
MIC [21]: 64 µM (≈ 144 µg/mL)
MIC [26]: 32 µM (≈ 72.2 µg/mL)
SMILES: CC[C@H](C)[C@H](NC(=O)[C@H](CCCN=C(N)N)NC(=O)[C@@H](N)Cc1c[nH]c2ccccc12)C(=O)N[C@@H](CCCN=C(N)N)C(=O)N[C@@H](CCCN=C(N)N)C(=O)N[C@@H](CCCN=C(N)N)C(=O)N1CCC[C@H]1C(=O)N1CCC[C@H]1C(=O)N[C@@H](CCCN=C(N)N)C(=O)N[C@@H](CC(C)C)C(=O)N1CCC[C@H]1C(=O)N[C@@H](CCCN=C(N)N)C(=O)N1CCC[C@H]1C(=O)N[C@@H](CCCN=C(N)N)C(=O)N[C@@H](Cc1c[nH]c2ccccc12)C(=O)N[C@@H](CCCN=C(N)N)C(=O)O [WRIRRRPPRLPRPRWR]
